Patent US4882272A, “High molecular weight kininogen assay” (Temple University - of the Commonwealth System of Higher …, priority 1987, dated 1989)
Peptide text beside a SMILES is read from it.

Target: T1, human factor XIa (Homo sapiens, UniProt P03951)
T1 construct: converted to the active enzyme factor XIa by factor XIIa
Test: Hydrolysis of chromogenic substrate S-2366 by factor XIa
Format: biochemical
Description: According to one embodiment, a chromogenic substrate for factor XIa is incubated with the assay reaction mixture. The substrate should, under the conditions of the assay, be capable of hydrolysis by factor XIa to yield a hydrolysis product whose appearance may be monitored spectrophotometrically or by a microplate reader. Such substrates include, for example, L-pyroglutamyl-L-prolyl-L-arginine-p-nitroanilide and H-D-leucylthreonyl-arginine-p-nitroanilide, available from KabiVitrum in hydrochloride form as "S-2366" and "S-2511", respectively. The enzymatic activity of factor XIa catalyzes the hydrolysis of the peptide-p-nitroanilide bond, releasing the chromophore p-nitroaniline. The appearance of p-nitroaniline may be measured spectrophotometrically after a fixed hydrolysis time, at 405 nm. The change in absorbance is proportional to the enzyme activity.
S-2366 is the preferred substrate.

T1 sequence (P03951 388-625 limits assumed): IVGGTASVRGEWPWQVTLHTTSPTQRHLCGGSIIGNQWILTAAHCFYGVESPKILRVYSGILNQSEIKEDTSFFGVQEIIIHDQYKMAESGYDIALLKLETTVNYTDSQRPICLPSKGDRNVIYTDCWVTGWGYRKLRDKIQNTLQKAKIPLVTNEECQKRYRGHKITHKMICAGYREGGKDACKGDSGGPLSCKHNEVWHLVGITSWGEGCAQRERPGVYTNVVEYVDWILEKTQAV
T1 sequence (P03951 19-387 partner limits assumed): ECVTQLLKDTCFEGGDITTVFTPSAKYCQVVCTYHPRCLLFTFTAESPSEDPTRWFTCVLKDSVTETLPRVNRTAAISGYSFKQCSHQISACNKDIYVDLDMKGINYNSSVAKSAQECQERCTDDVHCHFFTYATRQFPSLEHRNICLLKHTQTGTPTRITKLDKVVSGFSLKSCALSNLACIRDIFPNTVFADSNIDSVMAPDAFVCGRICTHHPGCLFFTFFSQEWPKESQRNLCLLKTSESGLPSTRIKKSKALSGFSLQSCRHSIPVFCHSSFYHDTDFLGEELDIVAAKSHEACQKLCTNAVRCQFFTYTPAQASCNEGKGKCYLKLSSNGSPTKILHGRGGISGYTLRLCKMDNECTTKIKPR

N=C(N)NCCC[C@H](NC(=O)[C@@H]1CCCN1C(=O)[C@@H]1CCC(=O)N1)C(=O)Nc1ccc([N+](=O)[O-])cc1 [S-2366, L-pyroglutamyl-L-prolyl-L-arginine-p-nitroanilide] (HELM PEPTIDE1{[Glp].P.R.[O=[N+]([O-])c1ccc(N[*:1])cc1]}$$$$V2.0)
Kcat to Km ratio: 5.5e+06 M⁻¹ s⁻¹
